Measured values from patent US20110092517A1, “Use of PPAR Delta Ligands for the Treatment or Prevention of Inflammation or Energy Metabolism/Production Related Diseases” (Cerenis Therapeutics S.A. & Nippon Chemiphar Co., Ltd., priority 2009, published 2011).

What was measured:
Format in all cases: in vivo, rat
[1] = Euglycemic-hyperinsulinemic 2 steps clamp with 3H-glucose after 5 weeks of treatment in WD fed rats; details: for Increase of GIR (glucose infusion rate) during the first step / Decrease of HGP (hepatic glucose production): clamp 0.2 U/kg/h insulin, pioglitazone 10, metformin 50, compound I.1 10 mg/kg +metformin 50 mg/kg
Experimental: After 4 weeks of treatment, a catheter was implanted into the femoral vein under isoflurane anaesthesia and a period of 5-6 days was respected for recovery. […] The morning of the clamp procedure, rats were treated and fasted for 6 hours prior to tracer, glucose and insulin infusions. The beginning of the clamp procedure was performed in the middle of the dark cycle.
The euglycemic hyperinsulinemic 2 steps insulin clamp was performed using 0.2 U/kg/h and 0.8 U/kg/h insulin infusion associated with 3H-glucose infusion. We then assessed:
During the clamp procedure, a bolus (30 μCi) of D-[3-3H]glucose was first injected followed by 4 μCi/min/kg infusion rate during all the experiment to ensure a detectable plasma D[3-3H]glucose enrichment. A bolus of insulin (100 mU) was first injected, and insulin was then infused at a rate of 0.2 U/kg/h for the first 2 hours and 0.8 U/kg/h from 120 minutes to 210 minutes.
Throughout the infusion, glycaemia was assessed with a blood glucose meter from the tip of the tail vein when needed. Euglycemia was maintained by periodically (every 10 minutes) adjusting a variable infusion of 30% glucose. Plasma glucose concentrations and D-[3-3H]glucose specific activity were determined during stable phase in 10 μl of blood sampled from the tip of the tail vein every 20 minutes from 60 to 120 minutes during the first step and from 150 to 210 minutes during the second step.
For glucose turnover measurements, D-[3-3H]glucose enrichments were determined from total blood after deproteinization by a Zn(OH)2 precipitate. Briefly, an aliquot of the supernatant was evaporated to dryness to determine the radioactivity corresponding to D-3-3H. In a second aliquot of the same supernatant, glucose concentration was assessed by the glucose oxidase method (Biomérieux, France).
Calculations for glucose turnover measurements were made from parameters obtained during the infusions in steady-state condition ([…]). Briefly, the D-[3-3H]glucose specific activity was calculated by dividing the D-[3-3H]glucose enrichment by the plasma glucose concentration. The whole body glucose turnover rate was calculated by dividing the rate of D[3-3H]glucose by the D-[3-3H]glucose plasma specific activity. For each rat, the mean values were calculated and averaged with values from rats of the same group. The whole body glycolysis rate was measured by assessing the amount of tritiated water accumulated in the blood during the 3H-glucose infusion and the whole body glycogen synthesis rate was calculated by the difference between the whole body glucose turnover and the whole body glycolysis rate.

[2] = Body weight follow-up during treatment in rats fed a high fat/medium fructose diet (WD); details: oral once daily, pioglitazone 10, metformin 50, GW501516 10, compound I.1 10 mg/kg (alone or +metformin 50 mg/kg)
Description: The first set of rats was undergoing an OGTT after 3 weeks of treatment (half rats/group of the clamp arm) and the second set was also undergoing an OGTT after 3 weeks of treatment (half rats/group of clamp arm) and the Histology study (3 rats/group). […] Homogenous mild obese and insulin resistant rats were allocated into the different treatment groups and western diet was continued until the end of the experiment. Given that, the 2 series started with a gap of one week Dosage regimen: Rats were treated once daily via the oral route, in the morning. The duration of the treatment was between 5 and 5.5 weeks. […], 10 mg/Kg (n=12) […] The second set of rats was weighted at 8:30 on days 17 and 21, at 1:45 pm on day 24 and at 11:10 am on day 28.

TNF-α = TNF-α content in liver and epididymal white adipose tissue after 5 weeks of treatment in WD fed rats (ELISA); details: metformin 50, GW501516 10, compound I.1 10 mg/kg (alone or +metformin 50 mg/kg)
Experimental: (§1) At the end of the clamp procedure (9.5 hours fasting), perirenal, retroperitoneal, epididymal and inguinal fat pads and liver weights were recorded. Blood was collected from cardiac puncture and plasmas were stored at −80° C. for further assays if needed (depending on the radioactive state of samples). Liver triglyceride content was assessed (enzymatic-colorimetric method) as well as liver and adipose tissue TNF-α content (ELISA method).

[3] = Liver and adipose tissue weights after 5 weeks of treatment in WD fed rats
Experimental: as §1

[4] = Plasma biochemistry after 17 days of treatment in WD fed rats (glycemia, insulin, HOMA-IR, adiponectin, FFA, TG); details: for Decrease of HOMA-IR / Decrease of plasma insulin: 4 h fasted; for Decrease of HOMA-IR: pioglitazone 10, metformin 50, GW501516 10, compound I.1 10 mg/kg; for Decrease of plasma insulin: pioglitazone 10, metformin 50, GW501516 10, compound I.1 10 mg/kg +metformin 50 mg/kg

CN(C)C(=N)N=C(N)N [metformin]
Insulin resistance / insulin sensitizing effect (overall) ([1]; WD fed rats, after 5 weeks, compound I.1 dose not specified (3 and 10 mg/kg groups), pioglitazone 10, metformin 50 mg/kg): insulin sensitizing effects
Whole body glucose oxidation ([1]; WD fed rats, clamp after 5 weeks, metformin 50 mg/kg, compound I.1 dose not specified, alone or associated): tended to increase
Increase of GIR (glucose infusion rate) during the first step ([1]; after 5 weeks): 112%
Decrease of HGP (hepatic glucose production) [1]: 40%
GIR during the second step ([1]; clamp 0.8 U/kg/h insulin, after 5 weeks, pioglitazone 10, metformin 50 mg/kg, other groups): tended to increase GIR (not significantly)
Increase of glycolysis ([1]; clamp 0.8 U/kg/h insulin, metformin 50, GW501516 10, compound I.1 10 mg/kg (alone or +metformin 50 mg/kg)): 20%
Body weight / body weight gain during treatment [2]: decreased
Body weight / body weight gain during treatment ([2]; listed as Metformin): significantly decreased body weight after 2 weeks of treatment
Decrease of TNF-α levels in epididymal white adipose tissues (TNF-α): 25%
Decrease of perirenal white adipose tissue ([3]; tendency, metformin 50 mg/kg alone or with compound I.1 10 mg/kg): 27%
Decrease of HOMA-IR [4]: ~50%
Decrease of plasma insulin [4]: 44%
Plasma adiponectin levels ([4]; pioglitazone 10, metformin 50, GW501516 10, compound I.1 3 and 10 mg/kg): did not prevent a decrease

CCc1ccc(CCOc2ccc(CC3SC(=O)NC3=O)cc2)nc1 (stereo not drawn) [pioglitazone]
Increase of GIR (glucose infusion rate) during the first step ([1]; after 5 weeks): 138%
Decrease of HGP (hepatic glucose production) [1]: 47%
Decrease of liver weight ([3]; non significant, pioglitazone 10, GW501516 10 mg/kg): 12%
Decrease of HOMA-IR [4]: ~50%
Decrease of plasma insulin [4]: 39%
